Measured values: patent US12590118B2, “Salt and crystal form of steroid derivative regulator” (Shanghai Hansoh Biomedical Co., Ltd., priority 2019, dated 2026)
pIC50: −log10 of the molar value.

Key:
ICR mice = experiment: Forced swimming model in mice; format: in vivo; conditions: for Mean (immobility, %) / Mean (immobility, s): dose 10 mpk p.o.; for Mean (immobility, %): floating time/240 s; for Mean (immobility, s): latter four minutes of 6 min swim; for immobility time during the latter four minutes compared with that of the model group: forced swimming, ICR mice
Experimental: The antidepressant effect of the compound was evaluated by the forced swimming model in mice.
Compounds of Examples 1 to 3, Example 9, Example 40, Example 41, Examples 48 to 52, Example 90 and Example 98 of the present invention, prepared by the applicant.
Male ICR mice (25-35 g) were adapted in the experiment environment for 3 days before the forced swimming test.
According to the experiment design, the mice were randomly grouped on the day before the experiment according to body weight, with 12 mice in each group. Before the test, the compounds of each example were administered intragastrically according to the Tmax thereof in the brain in mice pharmacokinetic experiment.
Respectively: • 1) Model group (0.5% CMC-Na-1% Tween 80 solution, p.o., 10 mL/kg); • 2) Compounds of Examples 1 to 3, Example 40, Example 41, Examples 48 to 51, Example 90 and Example 98 (10 mg/kg, p.o., 10 mL/kg); Example 9 and Example 52 (5 mg/kg, p.o., 5 mL/kg).
When being administered, the compounds of each example were suspended in 0.5% CMC-Na+1% Tween 80 solution to the desired concentration.
0.5-1 hour after administration, ICR mice were placed in a forced swimming device (transparent glass drum (water depth 18 cm, water temperature 25-26° C.), one mouse per tank) and forced to swim for 6 minutes. The forced swimming device recorded the floating time of the ICR mice during the entire 6 minutes, and the data of the latter four minutes were used for data analysis. The mice were taken out immediately after the swimming experiment, wiped dry and put back in their original cages.
Note: The criterion for determining the immobility time is that the mouse stops struggling in water and floats, and there are only slight limb movements to keep the head floating on the water.
3.4 Data Analysis Floating time percentage=100*floating time/240 s.

GABA-A receptor = experiment: 35S-TBPS binding assay (GABAA receptor binding ability assay); design: species or system Sprague-Dawley rat; conditions: rat cerebral cortex cell membrane, 5 μM GABA, 2 nM 35S-TBPS; read-out: IC50 on inhibiting the TBPS binding activity, 35S-TBPS bindng assay
Experimental: 1. The cerebral cortex of male Sprague-Dawley rat was isolated.
2. A pre-chilled 0.32 M sucrose solution (one tablet of protease inhibitor was added per 100 mL) was added to the cerebral cortex (the volume of sucrose solution was 10 times the volume of the cerebral cortex). The mixture was crushed with a 50 mL glass tissue homogenizer in batches and mixed well.
3. The mixture was centrifuged at 1,500 g, 4° C. for 10 minutes, and the supernatant was collected.
4. The mixture was centrifuged at 20,000 g, 4° C. for 30 minutes, and the supernatant was discarded.
5. The precipitate was resuspended with the pre-chilled phosphate buffer saline (PBS) (one tablet of protease inhibitor was added per 100 mL). An average of 4 mL of PBS was added per rat, and the mixture was mixed well with a glass tissue homogenizer.
6. The mixture was centrifuged at 10,000 g, 4° C. for 10 minutes, and the supernatant was discarded.
7. Steps 5 and 6 were repeated three times.
8. Finally, the precipitate was resuspended with 4 volumes of PBS. The resulting solution was dispensed, frozen in liquid nitrogen, and stored at −80° C.
9. The protein concentration was measured by the bicinchoninic acid (BCA) method.
1. 230 μL of PBS was added to each well of a well plate with 1.1 mL volume.
2. 60 μL of the cerebral cortex cell membrane (5 μg/μL) solution was added to each well, and the mixture was mixed well.
3. The test compound (3 μL per well) was added, and the plate was incubated at 25° C. for 5 minutes. The DMSO concentration was 1%. The initial compound concentration was […], and a
3-fold dilution in gradient was carried out to obtain a total of 8 gradients and 2 replicates. 1% DMSO was used as a negative control, and 10 μM P026-2 was used as a positive control.
4. GABA was added at a final concentration of 5 μM, and incubated at 25° C. for 5 minutes. 1 mM GABA solution was formulated, and 1.5 μL of the solution was added to each well.
5. 35S-TBPS was added at a final concentration of 2 nM. The concentration of isotope mother solution was 9.7 μM. After dilution with PBS for 100 times, 6 μL of the diluted isotope solution was added to each well.
6. The plate was incubated at 4° C. for 20 hours.
7. The FilterMate GF/C plate was pre-treated with 0.5% PEI, and incubated at 4° C. for 1 hour.
8. The FilterMate GF/C plate was washed with Universal Harvester twice, 50 mL PBS each time.
9. The reaction solution was transferred to the GF/C plate, and each well was washed 4 times with 900 μL of PBS.
10. The washed GF/C plate was placed at 55° C. and dried for 10 minutes.
11. 40 μL of scintillation solution was added to each well, and the CPM value was read with TopCount.
In the experiment, the CPM (counts per minute) value was read with TopCount. According to the readings of the High control (DMSO) and the Low control (10 μM of the positive compound) experimental groups, the % inhibition was calculated based on the following formula: % Inhibition=100×(CPMHigh control−CPMsample)/(CPMHigh control−CPMLow control)
The IC50 of the compound was calculated according to the following 4-parameter nonlinear logic formula: Y=Bottom+(Top−Bottom)/(1+10^((Log IC50−X)*HillSlope)),
wherein: • X represents the log of compound concentration, • Y represents the % Inhibition.
The effect of the compound of the present invention on the TBPS binding activity was determined by the above test, and the measured IC50 values are shown in Table 5.

Structure (SMILES)	pIC50 (GABA-A receptor)	also measured
C[C@@]1(O)CC[C@H]2[C@H](CC[C@@H]3[C@@H]2CC[C@@]2(C)[C@H]3[C@H](C3CC3)C[C@@H]2C(=O)Cn2ccc(C#N)n2)C1 [Example 49, 1-(2-((3R,5R,8R,9R,10S,13S,14S,15S,17S)-15-Cyclopropyl-3-hydroxy-3,13-dimethylhexadecahydro-1H-cyclopenta[a]phenanthren-17-yl)-2-oxoethyl)-1H-pyrazole-3-carbonitrile]	–	Mean (immobility, %) (ICR mice): 35.74%; Mean (immobility, s) (ICR mice): 85.77 s; immobility time during the latter four minutes compared with that of the model group (ICR mice): very significantly different
C[C@@]1(O)CC[C@H]2[C@H](CC[C@@H]3[C@@H]2CC[C@@]2(C)[C@H]3[C@H](C3CC3)C[C@@H]2C(=O)Cn2nccn2)C1 [Example 50, 1-((3R,5R,8R,9R,10S,13S,14S,15S,17S)-15-Cyclopropyl-3-hydroxy-3,13-dimethylhexadecahydro-1H-cyclopenta[a]phenanthren-17-yl)-2-(2H-1,2,3-triazol-2-yl)ethan-1-one]	–	Mean (immobility, %) (ICR mice): 29.57%; Mean (immobility, s) (ICR mice): 70.96 s; immobility time during the latter four minutes compared with that of the model group (ICR mice): very significantly different
Cc1nnnn1CC(=O)[C@H]1[C@H]2C[C@H]2[C@H]2[C@@H]3CC[C@@H]4C[C@](C)(O)CC[C@@H]4[C@H]3CC[C@@]21C [Example 71, 1-((2R,4aS,4bR,6aS,7S,7aS,8aR,8bR,8cR,10aR)-2-Hydroxy-2,6a-dimethyloctadecahydrocyclopropa[4,5]cyclopenta[1,2-a]phenanthren-7-yl)-2-(5-methyl-1H-tetrazol-1-yl)ethan-1-one]	7.94	–
C[C@@]1(O)CC[C@H]2[C@H](CC[C@@H]3[C@@H]2CC[C@@]2(C)[C@H]3[C@@H]3C[C@@H]3[C@@H]2C(=O)Cn2cc([N+](=O)[O-])cn2)C1 [Example 73, 1-((2R,4aS,4bR,6aS,7S,7aS,8aR,8bR,8cR,10aR)-2-Hydroxy-2,6a-dimethyloctadecahydrocyclopropa[4,5]cyclopenta[1,2-a]phenanthren-7-yl)-2-(4-nitro-1H-pyrazol-1-yl)ethan-1-one]	7.99	–
C[C@@]1(O)CC[C@H]2[C@H](CC[C@@H]3[C@@H]2CC[C@@]2(C)[C@H]3[C@@H]3C[C@@H]3[C@@H]2C(=O)Cn2nc(C#N)cc2C#N)C1 [Example 84, 1-(2-((2R,4aS,4bR,6aS,7S,7aS,8aR,8bR,8cR,10aR)-2-Hydroxy-2,6a-dimethyloctadecahydrocyclopropa[4,5]cyclopenta[1,2-a]phenanthren-7-yl)-2-oxoethyl)-1H-pyrazole-3,5-dicarbonitrile]	8.21	–
C[C@@]1(O)CC[C@H]2[C@H](CC[C@@H]3[C@@H]2CC[C@@]2(C)[C@H]3[C@@H]3C[C@@H]3[C@@H]2C(=O)Cn2cc(-c3ncco3)cn2)C1 [Example 85, 1-((2R,4aS,4bR,6aS,7S,7aS,8aR,8bR,8cR,10aR)-2-Hydroxy-2,6a-dimethyloctadecahydrocyclopropa[4,5]cyclopenta[1,2-a]phenanthren-7-yl)-2-(4-(oxazol-2-yl)-1H-pyrazol-1-yl)ethan-1-one]	7.80	–
CC[C@@H]1C[C@H](C(=O)Cn2ccc(C(F)(F)F)n2)[C@@]2(C)CC[C@H]3[C@@H](CC[C@@H]4C[C@](C)(O)CC[C@@H]43)[C@H]12 [Example 91, 1-((3R,5R,8R,9R,10S,13S,14S,15R,17S)-15-Ethyl-3-hydroxy-3,13-dimethylhexadecahydro-1H-cyclopenta[a]phenanthren-17-yl)-2-(3-(trifluoromethyl)-1H-pyrazol-1-yl)ethan-1-one]	7.60	–
CC[C@@H]1C[C@H](C(=O)Cn2nnc(C)n2)[C@@]2(C)CC[C@H]3[C@@H](CC[C@@H]4C[C@](C)(O)CC[C@@H]43)[C@H]12 [Example 92, 1-((3R,5R,8R,9R,10S,13S,14S,15R,17S)-15-Ethyl-3-hydroxy-3,13-dimethylhexadecahydro-1H-cyclopenta[a]phenanthren-17-yl)-2-(5-methyl-2H-tetrazol-2-yl)ethan-1-one]	7.57	–
CC[C@@H]1C[C@H](C(=O)Cn2nccn2)[C@@]2(C)CC[C@H]3[C@@H](CC[C@@H]4C[C@](C)(O)CC[C@@H]43)[C@H]12 [Example 94, 1-((3R,5R,8R,9R,10S,13S,14S,15R,17S)-15-Ethyl-3-hydroxy-3,13-dimethylhexadecahydro-1H-cyclopenta[a]phenanthren-17-yl)-2-(2H-1,2,3-triazol-2-yl)ethan-1-one]	7.62	–
CC[C@@H]1C[C@H](C(=O)Cn2nc(C#N)cc2C#N)[C@@]2(C)CC[C@H]3[C@@H](CC[C@@H]4C[C@](C)(O)CC[C@@H]43)[C@H]12 [Example 95, 1-(2-((3R,5R,8R,9R,10S,13S,14S,15R,17S)-15-Ethyl-3-hydroxy-3,13-dimethylhexadecahydro-1H-cyclopenta[a]phenanthren-17-yl)-2-oxoethyl)-1H-pyrazole-3,5-dicarbonitrile]	7.79	–
C[C@@]1(O)CC[C@H]2[C@H](CC[C@@H]3[C@@H]2CC[C@@]2(C)[C@H]3[C@H](C3CC3)C[C@@H]2C(=O)Cn2ccc(C(F)(F)F)n2)C1 [Example 97, 1-((3R,5R,8R,9R,10S,13S,14S,15S,17S)-15-Cyclopropyl-3-hydroxy-3,13-dimethylhexadecahydro-1H-cyclopenta[a]phenanthren-17-yl)-2-(3-(trifluoromethyl)-1H-pyrazol-1-yl)ethan-1-one]	7.73	–
C[C@@]1(O)CC[C@H]2[C@H](CC[C@@H]3[C@@H]2CC[C@@]2(C)[C@H]3[C@H](C3CC3)C[C@@H]2C(=O)Cn2cc(C#N)c(Cl)n2)C1 [Example 99, 3-Chloro-1-(2-((3R,5R,8R,9R,10S,13S,14S,15S,17S)-15-cyclopropyl-3-hydroxy-3,13-dimethylhexadecahydro-1H-cyclopenta[a]phenanthren-17-yl)-2-oxoethyl)-1H-pyrazole-4-carbonitrile]	7.61	–
CC[C@@H]1C[C@H](C(=O)Cn2ncnn2)[C@@]2(C)CC[C@H]3[C@@H](CC[C@@H]4C[C@](C)(O)CC[C@@H]43)[C@H]12 [Example 100, 1-((3R,5R,8R,9R,10S,13S,14S,15R,17S)-15-Ethyl-3-hydroxy-3,13-dimethylhexadecahydro-1H-cyclopenta[a]phenanthren-17-yl)-2-(2H-tetrazol-2-yl)ethan-1-one]	7.59	–
